Assay [1] has as its system HEK293sieSTAT3(wt). Put plainly: drug sensitivity score (DSS), cytotoxicity CellTox Green (DSS (dimensionless)); higher = more cytotoxic; extreme values may be limits of the assay. Conditions: 72 h; STAT3 variant: wild type. The method, boiled down:
(§1)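 HEK293 cells bearing a STAT3-dependent luciferase reporter and overexpressing wild-type or mutant STAT3 were incubated with compounds at 5 concentrations in 10-fold steps for 72 hours at 37°C and 5% CO2. CellTox Green fluorescence and then CellTiter-Glo luminescence were measured, and values were normalised to negative and positive control wells. In Breeze, a drug sensitivity score was computed from the dose-response curve area.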

The test system of assay [2] is HEK293sieSTAT3(Y640F). The assay is described as above. Particulars: 72 h; STAT3 variant: Y640F (constitutively active). The gist of the method:
as §1

In assay [3] the test system is HEK293sieSTAT3(wt). The experiment in a line: drug sensitivity score (DSS), viability CellTiter-Glo (DSS (dimensionless)); higher = more growth inhibition; extreme values may be limits of the assay. Particulars: 72 h; STAT3 variant: wild type. The gist of the method:
as §1
Background: Cellular ATP, detected with luciferase, serves as a proxy for viable cell number.

In assay [4] the test system is HEK293sieSTAT3(Y640F). The description is as above. Conditions: 72 h; STAT3 variant: Y640F (constitutively active). The method, boiled down:
as §1

Structures are written as SMILES.

For `CNC(=O)c1ccc(N2C(=S)N(c3ccc(C#N)c(C(F)(F)F)c3)C(=O)C23CCC3)cc1F` [RD162] (top concentration tested 10000 nM), the drug sensitivity score is 0.2 in assay [1], 0 in assay [2], 1.68 in assay [3] and 2.62 in assay [4].

For the molecule `COc1ccc(-c2ccc3ncc4c(c3c2)n(-c2ccc(N3CCNCC3)c(C(F)(F)F)c2)c(=O)n4C)cn1` [NVP-BGT226] (top concentration tested 1000 nM), the drug sensitivity score in assay [1] was found to be 9.37; in assay [2], 4.28; in assay [3], 28; in assay [4], 24.6.

Take `Cc1c(F)cc(C(=O)NC2CC2)cc1-c1ccc(C(=O)NCC(C)(C)C)cn1` [Losmapimod] (top concentration tested 10000 nM): the drug sensitivity score in assay [1] is 0; in assay [2] it was 0; in assay [3] it was 0; in assay [4], 0.91.

As to `Cc1cc(C(C)Nc2ccccc2)c2nc(N3CCOCC3)cc(=O)n2c1` (configuration not stated) [TGX-221] (top concentration tested 10000 nM), the drug sensitivity score in assay [1] was 0; in assay [2], 0; in assay [3], 0; in assay [4], 0.57.

In the case of `C[C@@H](Nc1cc(F)cc(F)c1)c1cc(C(=O)N(C)C)cc2c(=O)cc(N3CCOCC3)oc12` [AZD-8186] (top concentration tested 1000 nM), the drug sensitivity score in assay [1] worked out at 0; in assay [2], 0; in assay [3] it was 0.9; in assay [4] it was 0.

Regarding `S=c1[nH]cnc2nc[nH]c12` [Mercaptopurine] (top concentration tested 10000 nM), the drug sensitivity score stood at 0 in assay [1], 0 in assay [2], 7.64 in assay [3] and 7.54 in assay [4].

For `N#CC(c1ccnc(OCc2ccc(CN3CCOCC3)cc2)n1)c1nc2ccccc2s1` (configuration not stated) [Bentamapimod] (top concentration tested 10000 nM), the drug sensitivity score was 0 in assay [1], 0.96 in assay [2], 8.85 in assay [3] and 5.3 in assay [4].

With `Cn1cc(-c2cnn3c(N)c(Br)c([C@@H]4CCCNC4)nc23)cn1` [MK-8776] (top concentration tested 2500 nM), the drug sensitivity score in assay [1] was 3.43; in assay [2], 1.03; in assay [3], 6.83; in assay [4], 5.89.

With `CC[C@@]1(O)C(=O)OCc2c1cc1n(c2=O)Cc2cc3ccccc3nc2-1` [Camptothecin] (top concentration tested 5000 nM), the drug sensitivity score was 15.8 in assay [1], 9.78 in assay [2], 29.1 in assay [3] and 28.5 in assay [4].

For the molecule `CC(=O)c1c(C)c2cnc(Nc3ccc(N4CCNCC4)cn3)nc2n(C2CCCC2)c1=O` [Palbociclib] (top concentration tested 10000 nM), the drug sensitivity score in assay [1] is 7.3; in assay [2], 1.93; in assay [3], 6.99; in assay [4], 5.65.

In the case of `CC1=C(/C=C/C(C)=C/C=C/C(C)=C/C(=O)O)C(C)(C)CCC1` [Tretinoin] (top concentration tested 10000 nM), the drug sensitivity score in assay [1], in assay [2], in assay [3] and in assay [4] was 0 each time.

On to `COc1cc2c(Oc3ccc(NC(=O)C4(C(=O)Nc5ccc(F)cc5)CC4)cc3F)ccnc2cc1OCCCN1CCOCC1` [Foretinib] (top concentration tested 1000 nM), for which the drug sensitivity score in assay [1] came out at 5.97; in assay [2], 0; in assay [3], 5.99; in assay [4], 6.63.

In the case of `Cc1nc(-c2cn3c(n2)-c2ccc(-c4cnn(C(C)(C)C(N)=O)c4)cc2OCC3)n(C(C)C)n1` [Taselisib] (top concentration tested 1000 nM), the drug sensitivity score in assay [1] is 0.54; in assay [2], 0; in assay [3], 5.32; in assay [4], 4.03.

On to `Cn1nccc1Nc1nccc(-c2ccn([C@H](CO)c3ccc(Cl)c(F)c3)c(=O)c2)n1` [GDC-0994] (top concentration tested 10000 nM), for which the drug sensitivity score in assay [1] worked out at 0; in assay [2], 0; in assay [3], 6.43; in assay [4] it was 8.52.

Take `COc1ccc(-c2ccc3c(N4CCOC[C@@H]4C)nc(N4CCOC[C@@H]4C)nc3n2)cc1CO` [AZD8055] (top concentration tested 10000 nM): the drug sensitivity score in assay [1] turned out to be 3.7; in assay [2], 0; in assay [3], 26.8; in assay [4], 25.7.

In the case of `CNC(=O)c1ccc2cc([C@@]3(O)CCn4cncc43)ccc2c1` [Orteronel] (top concentration tested 10000 nM), the drug sensitivity score in assay [1], in assay [2], in assay [3] and in assay [4] was 0 each time.

As for `Cc1[nH]c2ccccc2c1CCNCc1ccc(/C=C/C(=O)NO)cc1` [Panobinostat] (top concentration tested 1000 nM), the drug sensitivity score in assay [1] amounted to 17.8; in assay [2] it was 11.6; in assay [3] it was 20.4; in assay [4], 20.6.

On to `Cc1nc(Nc2n[nH]c3c2CN(C(=O)N[C@H](CN(C)C)c2ccccc2)C3(C)C)c2sccc2n1` (top concentration tested 10000 nM), for which the drug sensitivity score was 34 in assay [1], 0.9 in assay [2], 32.7 in assay [3] and 19.3 in assay [4].

For `CNC(=O)c1nn(C)c2c1C(C)(C)Cc1cnc(Nc3ccc(N4CCN(C)CC4)cc3)nc1-2` [Milciclib] (top concentration tested 10000 nM), the drug sensitivity score in assay [1] stood at 7.5; in assay [2], 1; in assay [3], 15; in assay [4] it was 11.2.

As for `CN(C)c1cc2c(cc1Sc1nc3c(N)nccc3n1CCNCC(C)(C)C)OCO2` [CUDC-305] (top concentration tested 10000 nM), the drug sensitivity score in assay [1] came out at 17.6; in assay [2] it was 7.26; in assay [3] it was 24.6; in assay [4], 20.

On to `CCN(CC)CCCC(C)Nc1c2ccc(Cl)cc2nc2ccc(OC)cc12` (configuration not stated) [Mepacrine] (top concentration tested 50000 nM), for which the drug sensitivity score was 19.7 in assay [1], 18.1 in assay [2], 21.4 in assay [3] and 21.1 in assay [4].

With `CC(=O)N(O)CCCCCNC(=O)CCC(=O)N(O)CCCCCNC(=O)CCC(=O)N(O)CCCCCN` [Deferoxamine] (top concentration tested 10000 nM), the drug sensitivity score in assay [1] came to 1.09; in assay [2], 0.01; in assay [3] it was 3.23; in assay [4] it was 2.48.

On to `Cc1cc(OCc2nnc(SC3CCCC3)n2-c2cccnc2)ccc1-c1ccc(S(C)(=O)=O)cc1` [NMS-873] (top concentration tested 10000 nM), for which the drug sensitivity score in assay [1] is 7.29; in assay [2], 6.39; in assay [3], 12.5; in assay [4], 11.8.

Regarding `CCn1cc(-c2ccnc3[nH]c(-c4cccc(CN(C)C)c4)cc23)c(-c2ccc(NC(=O)N(C)C)cc2)n1` (top concentration tested 1000 nM), the drug sensitivity score in assay [1] was determined as 0.19; in assay [2] it was 0; in assay [3] it was 5.64; in assay [4], 4.73.

In the case of `Cc1c(NC(=O)OC[C@@H]2COCCN2)cn2ncnc(Nc3ccc4c(cnn4Cc4cccc(F)c4)c3)c12` (top concentration tested 10000 nM), the drug sensitivity score in assay [1] was 6.8; in assay [2] it was 0.83; in assay [3], 6.6; in assay [4], 2.59.

Take `O=C(Nc1cccc(Nc2ncc(Br)c(NCCc3cnc[nH]3)n2)c1)N1CCCC1` [BX-912] (top concentration tested 10000 nM): the drug sensitivity score in assay [1] was 0; in assay [2] it was 0; in assay [3] it was 6.67; in assay [4] it was 5.58.

Consider `CN(Cc1cnc2nc(N)nc(N)c2n1)c1ccc(C(=O)N[C@@H](CCC(=O)O)C(=O)O)cc1` [Methotrexate] (top concentration tested 5000 nM), for which the drug sensitivity score in assay [1] stood at 1.17; in assay [2] it was 0; in assay [3], 17; in assay [4] it was 26.1.

Take `CO[C@H]1/C=C\C=C(/C)C(=O)NC2=CC(=O)C(NCCN(C)C)=C(C[C@@H](C)C[C@H](OC)[C@H](O)[C@@H](C)/C=C(\C)[C@@H]1OC(N)=O)C2=O` [Alvespimycin] (top concentration tested 1000 nM): the drug sensitivity score in assay [1] is 16.2; in assay [2], 7.84; in assay [3] it was 16.6; in assay [4] it was 14.9.

Regarding `O=C(O)c1ccc2c(c1)nc(Nc1cccc(Cl)c1)c1ccncc12` [Silmitasertib] (top concentration tested 10000 nM), the drug sensitivity score in assay [1] came out at 1.84; in assay [2], 0; in assay [3], 7.79; in assay [4] it was 6.52.

Regarding `O=C(/C=C/c1cccc(S(=O)(=O)Nc2ccccc2)c1)NO` [Belinostat] (top concentration tested 10000 nM), the drug sensitivity score amounted to 8.71 in assay [1], 8.83 in assay [2], 13.1 in assay [3] and 16.9 in assay [4].

As for `CCn1c(=O)c(-c2cc[nH]n2)cc2c(C)nc(N)nc21` [Voxtalisib] (top concentration tested 10000 nM), the drug sensitivity score is 3.54 in assay [1], 0 in assay [2], 9.9 in assay [3] and 8.35 in assay [4].

Take `O=c1[nH]c(C2CCCN2)nc2c1oc1ccc(Cl)cc12` (configuration not stated) (top concentration tested 10000 nM): the drug sensitivity score in assay [1] is 0; in assay [2], 0; in assay [3] it was 6.39; in assay [4] it was 5.66.

On to `O=C(CCCCCCC(=O)Nc1ccccc1)NO` [Vorinostat] (top concentration tested 10000 nM), for which the drug sensitivity score turned out to be 4.68 in assay [1], 2.86 in assay [2], 9.87 in assay [3] and 10.6 in assay [4].

The values above are taken from the supplement of paper PMC7108870.
